From patent publication US20240316140A1 (UBIO INC., priority 2021, published 2024)
Residues, ends and D or L forms follow the SMILES beside them.

Legend:
[1] = system: HepG2 cells; experiment: Hepatocyte protection ability of peptide against t-BHP damage (MTT); assay type: cell-based, human; conditions: 10 mM t-BHP
Method: HepG2 cells, which are hepatoma cell lines, were dispensed in the 24-well plate at 1×10^5/well and cultured. Thereafter, in order to confirm hepatocyte protection ability of three kinds of synthetic peptides, the peptides were treated by concentration, cultured for 23 hours, and then 10 mM of t-BHP was treated for damage to the hepatocytes to culture the same for 90 minutes.

[2] = system: HepG2 hepatoma cell line; experiment: HepG2 cytotoxicity evaluation of peptide (MTT); assay type: cell-based, human; conditions: tested 0.01 to 1000 ug/ml, 24 hours, non-toxic concentration
Method: After culturing a HepG2 hepatoma cell line, three kinds of synthetic peptides were added by concentration, and MTT (methylthiazol tetrazolium bromide, Sigma Aldrich) was carried out to confirm cell viability. An appropriate amount (1×10^5/well) of cells was seeded on each well in a 24-well plate (BD, Falcon) to treat a sample according to the concentration, and cell viability was confirmed after cultivation for 24 hours in a 37° C. incubator.

Row | Compound | Hepatocyte Protection Ability ([1]; 10 ug/ml peptide) [%] | Test Concentration Setting, Cytotoxicity (HepG2) [2] | Hepatocyte Protection Ability ([1]; 0.1 ug/ml peptide) [%] | Hepatocyte Protection Ability ([1]; 1 ug/ml peptide) [%]
1 | CC(C)[C@H](N)C(=O)N[C@H](C(=O)N[C@H](C(=O)N[C@@H](CCC(=O)O)C(=O)O)C(C)C)C(C)C [PEP-1, VVVE] (H-VVVE-OH; N-terminus and C-terminus assumed) | 7 | less than 10 ug/ml |  | 
2 | CC(C)C[C@H](NC(=O)CNC(=O)[C@@H](N)CC(=O)O)C(=O)N[C@@H](Cc1c[nH]cn1)C(=O)N[C@@H](CC(C)C)C(=O)N[C@@H](CCCNC(=N)N)C(=O)O [PEP-2, DGLHLR] (H-DGLHLR-OH; N-terminus and C-terminus assumed) | 26 | less than 10 ug/ml | 15 | 20
3 | CC(C)[C@H](NC(=O)[C@H](CO)NC(=O)[C@@H]1CCCN1C(=O)[C@H](CC(N)=O)NC(=O)[C@H](Cc1ccccc1)NC(=O)[C@H](CC(=O)O)NC(=O)[C@@H](N)CC(=O)O)C(=O)N[C@@H](Cc1c[nH]cn1)C(=O)O [PEP-3] (H-DDFNPSVH-OH; N-terminus and C-terminus assumed) | 20 | less than 10 ug/ml | 9 | 20
